Laboratory results as given in patent US20080146555A1, “Uses of Kinase Inhibitors and Compositions Thereof” (GPC Biotech, Inc, priority 2004, published 2008).

Key:
HCT-116 cells [1] = assay: Calcein AM viability assay, HCT-116; assay type: cell-based; conditions: Homo sapiens
Procedure: (§1) The potency of the subject kinase inhibitors, as measured by loss of cellular viability, was determined with the Calcein AM assay (Molecular Probes). Calcein AM is a substrate of intracellular esterases, which is cleaved only in viable cells to generate a fluorescent product that can be quantified with a fluorescent plate reader. The fluorescent signal is proportional to the number of viable cells, and thus loss of signal in response to the exposure of cells to the subject kinase inhibitors correlates with a loss of viability. This assay not only distinguishes cell cycle arrest, in which cells may still by viable, from loss of viability, and is thus well suited for the evaluation of the subject kinase inhibitors. A compound that is a potent cytotoxic agent may cause significant loss of cell viability in such an assay.
(§2) Cellular IC50's were determined in the human colorectal carcinoma cell line, HCT-116, and the normal human fibroblast, IMR90. Protein adjusted IC50's were also determined in HCT-116. Results of such viability assays are presented in Table 2 (HCT-116 (viability/protein adjusted) and IMR-90). IC50's (μM, non-protein adjusted) for the viability assay against HCT-116 cells are shown for further compounds of the invention in Table 4.
(§3) HCT-116 or IMR90 cells were recovered from sub-confluent plates by trypsinization and 1,000 or 4,000 cells, respectively, were plated in 24-well dishes and incubated overnight at 37° C., 5% CO2. HCT-116 cells were cultured in RPMI-1640, 10% FCS, and IMR90 cells were cultured in Minimum Essential Medium-alpha, 10% FCS. After overnight incubation to allow adherence, the media was aspirated from each well and replaced with media containing a test compound at a concentration from 0 to 250 nM, spanning a total of 7 doses. The plates were returned to the incubator and cultured for an additional 72 hours (3 days). […] After 72-hours incubation with the test compound, the cells were washed twice with 1×PBS, taking special care to remove all residual buffer.
(§4) A 5 μM Calcein AM solution was prepared by dissolving a 50 μg aliquot of Calcein (Molecular Probes catalog #C3100) in 50 μl DMSO. After the Calcein had completely dissolved (10 minutes at room temperature), it was diluted into 10 ml PBS. Calcein/PBS (0.5 ml) was added to each well. The plates were incubated for 75 minutes at 37° C. (protected from light) and the fluorescent signal was read on a fluorescent plate reader (excitation 485/20 and emission 530/25).

[2] = tested on: NCI panel of 60 cell lines; assay: cells; conditions: Homo sapiens, 60 cell, 48 h, read-out: NCI panel MG-MID (Mean-Graph Mid-point, average IC50 over panel), 48 h, SRB; IC50 <10 nM counted as 10 nM
Source text: (§5) The evaluation of compounds at the National Cancer Institute in their panel of 60 cell lines provides a wealth of information regarding efficacy in a wide range of tumor types and genetic backgrounds. Included within this panel are cell lines derived from leukemia, melanoma and cancers of the lung, colon, brain, ovary, breast, prostate and kidney. Use of this panel provides a measure of the efficacy of compounds in cells with alterations in many genes that are associated with neoplastic transformation including p53 and Her2/Neu as well as those involved in metabolism and those which confer multi-drug resistance. The data generated in these cell lines with the protocol described below can be used to evaluate the activity of compounds.
(§6) Cells were grown in RPMI-1640 10% FCS and plated in 96 well micro-titer plates at densities ranging from 5,000 to 40,000 cells/well. The plates were incubated for 24 hours at 37° C., 5% CO2 for 24 hours. Media containing twice the desired final concentration of the compound (5 doses spanning 4 logs) was prepared and 100 μl was added to each well containing 100 μl media plus cells to yield the desired final concentration. The plates were then incubated for an additional 48 hours.
(§7) The effect of the compound on cellular viability was determined with the Sulforhodamine B (SRB) assay, which measures total protein. Cells were fixed with cold TCA to a final concentration of 10% and incubated at 4° C. for 60 minutes. The supernatant was discarded and the plates were washed five times with water and air-dried. SRB solution at […] in 1% acetic acid was added to each well and the plates were incubated for 10 minutes at room temperature. The plates were washed five times with 1% acetic acid and air-dried. The bound stain was solubilized with 10 mM trizma base and the absorbance was read on a plate reader at […].

[3] = tested on: adriamycin resistant cell line (ADR-res); assay: NCI panel, adriamycin resistant cell line, SRB assay; assay type: cell-based; conditions: Homo sapiens, 48 h
Source text: as §5, §6, §7

HCT-116 cells [4] = assay: Clonogenic survival assay with HCT-116 cells; assay type: cell-based; conditions: Homo sapiens
Procedure: This assay was used to determine the concentration of a compound that results in irreversible loss of viability after a specified period of exposure. Essentially, cells are exposed to compound for a period of […], and are then transferred to compound-free growth medium. After continued incubation in the compound-free medium for a number of days, the number of colonies recovered is counted as an estimate of the number of surviving cells.
Media (RPMI-1640, 10% FCS, pen/strep) was pre-warmed to 37° C. in a water bath. Cells were incubated and grown at 37° C., 5% CO2. Cells were recovered by trypsinization from sub-confluent plates and counted using a hemocytometer. 1×10^4 cells were plated in 25 mls of media in a 15 cm tissue culture dish. […] were set up for each test compound, and were incubated overnight at 37° C. The compound was diluted into media at 7 concentrations and the media on the cells was replaced with that containing the test compound. Two plates were set up for each concentration of the compound to be tested, as well as two control plates without compound. Plates were incubated as above for […], media was removed and replaced with fresh media, and the plates were incubated an additional 7 days and washed with PBS. Colonies were stained with crystal violet solution (0.4% crystal violet, 20% ethanol) for 5 minutes, washed twice with distilled water, and counted.

[5] = tested on: normal human fibroblast, IMR90; assay: Calcein AM viability assay, IMR90; assay type: cell-based; conditions: IMR-90, Calcein AM, 72 h
Procedure: as §1, §2, §3, §4

1A9 = assay: SRB cytotoxicity, 1A9 parental cells; assay type: cell-based; conditions: Homo sapiens, 72 h
Procedure: (§8) In these experiments, the P-glycoprotein expressing NCI-Adr resistant subline (Vickers et al., 1989. Mol Endocrinology 3 (1):157-164) was used. […] Briefly, cells were plated in 96 well dishes 24 hours prior to compound addition. Where noted, they were exposed to verapamil for 4 hours prior to compound addition and then throughout the treatment period (72 hours). The assay was terminated with the addition of cold TCA to a final concentration of 10% and the plates were incubated for one hour at 4° C. The plates were then washed 5 times with water and 100 μl of a Sulforhodamine B solution (4%) was added to each well. The plate was then incubated for 10 minutes at room temperature before removal of unbound dye by washing with 1% acetic acid.
(§9) The tubulin mutated, paclitaxel-resistant human ovarian carcinoma cell line 1A9-PTX10 and its parental paclitaxel-sensitive cell line 1A9 were derived from the A2780 human ovarian carcinoma cell line (J Biol Chem (1997) 272, 17118-17124).

1A9-PTX10 = assay: SRB cytotoxicity, tubulin mutated paclitaxel-resistant cells; assay type: cell-based, human
Procedure: as §8, §9

NCI-Adr resistant = assay: SRB cytotoxicity, P-glycoprotein expressing cells with and without verapamil; assay type: cell-based; conditions: for IC50: Homo sapiens, NCI/ADR-RES, 72 h, SRB
Procedure: as §8

[6] = HCT-116, non-protein adjusted, Table 4, read-out: HCT-116 viability IC50
[7] = 24 h exposure, read-out: HCT-116 IC50 Clonogenic 24 h
[8] = 48 h exposure, read-out: HCT-116 IC50 Clonogenic 48 h
[9] = HCT-116, 72 h, Calcein AM, 72 h, read-out: HCT-116 IC50 Viability
[10] = HCT-116, plus 1 mg/ml alpha acidic glycoprotein and 45 mg/ml human serum albumin, read-out: HCT-116 IC50 Protein adjusted

| Structure (SMILES) | IC50 (HCT-116 cells [1]; [6]) [nM] | IC50 [2] [nM] | IC50 [3] [µM] | IC50 (HCT-116 cells [4]; [7]) [nM] | IC50 (HCT-116 cells [1]; [9]) [nM] | IC50 (HCT-116 cells [1]; [10]) [nM] | IC50 [5] [nM] | further results |
| --- | --- | --- | --- | --- | --- | --- | --- | --- |
| O=C(Nc1cccc2c1C(=O)c1c(-c3ccc(CNCCO)cc3)n[nH]c1-2)NN1CCOCC1 [Compound B10] | < 100 |  |  |  |  |  |  |  |
| O=C(Nc1cccc2c1C(=O)c1c(-c3ccc(CNCC(O)CO)cc3)n[nH]c1-2)NN1CCOCC1 (centres unmarked) [Compound B11] | < 1000 |  |  |  |  |  |  |  |
| O=C(Nc1cccc2c1C(=O)c1c(-c3ccc(CNCc4cccnc4)cc3)n[nH]c1-2)NN1CCOCC1 [Compound B12] | < 100 |  |  |  |  |  |  |  |
| O=C(Nc1cccc2c1C(=O)c1c(-c3ccc(CNCc4ccccn4)cc3)n[nH]c1-2)NN1CCOCC1 [Compound B13] | < 10 |  |  |  |  |  |  |  |
| O=C(Nc1cccc2c1C(=O)c1c-2n[nH]c1-c1ccc(CN2CCN(c3ccncc3)CC2)cc1)NN1CCOCC1 [Compound B14] | < 10 |  |  |  |  |  |  |  |
| O=C(Nc1cccc2c1C(=O)c1c-2n[nH]c1-c1ccc(CN2CCN(c3ncccn3)CC2)cc1)NN1CCOCC1 [Compound B15] | < 10 |  |  |  |  |  |  |  |
| CC(C)N1CCN(Cc2ccc(-c3[nH]nc4c3C(=O)c3c(NC(=O)NN5CCOCC5)cccc3-4)cc2)CC1 [Compound B17] | < 10 |  |  |  |  |  |  |  |
| COCCN1CCN(C(=O)COc2ccc(-c3[nH]nc4c3C(=O)c3c(NC(=O)NN5CCOCC5)cccc3-4)cc2)CC1 [Compound C1] | < 100 |  |  |  |  |  |  |  |
| O=C(Nc1cccc2c1C(=O)c1c-2n[nH]c1-c1ccc(OCC(=O)N2CCNCC2)cc1)NN1CCOCC1 [Compound C5] | < 250 |  |  |  |  |  |  |  |
| O=C(Nc1cccc2c1C(=O)c1c-2n[nH]c1-c1ccc(OCCN2CCCC2)cc1)NN1CCOCC1 [Compound I] |  | < 100 | < 1 | < 100 | < 100 | < 1000 | < 100 | IC50 (HCT-116 cells [4]; [8]): < 100 nM |
| CN1CCN(NC(=O)Nc2cccc3c2C(=O)c2c-3n[nH]c2-c2ccc(OCCN3CCC[C@H]3CO)cc2)CC1 [Compound M] |  |  |  | < 100 | < 100 | < 1000 | < 100 |  |
| CN1CCN(NC(=O)Nc2cccc3c2C(=O)c2c-3n[nH]c2-c2ccc(OCCN3CCCC3)cc2)CC1 [F] |  | < 100 | < 1 | < 1000 | < 100 | < 100 | < 100 |  |
| CCCN(CCOc1ccc(-c2[nH]nc3c2C(=O)c2c(NC(=O)NN4CCOCC4)cccc2-3)cc1)CC1CC1 [G] |  | < 100 | < 1 | < 100 | < 100 | < 1000 | < 100 | IC50 (HCT-116 cells [4]; [8]): < 100 nM |
| O=C(Nc1cccc2c1C(=O)c1c-2n[nH]c1-c1ccc(OCCN(CCO)CCO)cc1)NN1CCOCC1 [H] |  | < 100 | > 10 | < 1000 | < 100 | < 1000 | < 100 | IC50 (HCT-116 cells [4]; [8]): < 100 nM |
| O=C(Nc1cccc2c1C(=O)c1c-2n[nH]c1-c1ccc(OP(=O)(O)O)cc1)NN1CCOCC1 [J] |  |  |  |  |  |  | < 100 | IC50 (HCT-116 cells [1]; HCT-116, Calcein AM, 72 h, read-out: HCT-116 IC50 Viability): < 1000 nM |
| CC(C)N1CCN(Cc2cc(-c3[nH]nc4c3C(=O)c3c(NC(=O)NN5CCOCC5)cccc3-4)ccc2O)CC1 [K] |  | < 100 | < 10 | < 1000 | < 100 | < 1000 | > 100 |  |
| Cc1cc(OCCN2CCCC2)ccc1-c1[nH]nc2c1C(=O)c1c(NC(=O)NN3CCN(C)CC3)cccc1-2 [L] |  | > 10000 | > 10 |  | < 100 | < 1000 | > 100 | IC50 (HCT-116 cells [4]; [8]): < 100 nM |
| CN1CCN(NC(=O)Nc2cccc3c2C(=O)c2c-3n[nH]c2-c2ccc(OCCN(CCO)CCO)cc2)CC1 [N] |  |  |  |  | < 1000 | < 1000 | > 100 |  |
| CN1CCN(NC(=O)Nc2cccc3c2C(=O)c2c-3n[nH]c2-c2ccc(OCCN3CC[C@H](O)C3)cc2)CC1 [O] |  |  |  | < 10 | < 100 | < 1000 | < 100 |  |
| Cc1cc(-c2[nH]nc3c2C(=O)c2c(NC(=O)NN4CCN(C)CC4)cccc2-3)ccc1OCCN1CCCC1 [P] |  |  |  | < 100 | < 10 |  | < 100 |  |
| CC(=O)O[C@H]1C(=O)[C@@]2(C)[C@H]([C@H](OC(=O)c3ccccc3)[C@]3(O)C[C@H](OC(=O)[C@H](O)[C@@H](NC(=O)c4ccccc4)c4ccccc4)C(C)=C1C3(C)C)[C@]1(OC(C)=O)CO[C@@H]1C[C@@H]2O [Paclitaxel, reference compound] |  |  |  |  |  |  |  | IC50 (1A9): 4 nM; IC50 (1A9-PTX10; Homo sapiens, 1A9/ptx-10, 72 h, SRB): 235 nM; RR (relative resistance) 1A9-PTX10 vs 1A9 (1A9-PTX10; ratio of mean IC50 resistant/sensitive): 59; IC50 (NCI-Adr resistant; verapamil 12.5 μg/ml): 39 nM; IC50 (NCI-Adr resistant; without verapamil): 3960 nM; RR (relative resistance) NCI-Adr resistant −/+ verapamil (NCI-Adr resistant; ratio of mean IC50): 101.5 |
| CN1CCN(NC(=O)Nc2cccc3c2C(=O)c2c-3n[nH]c2-c2ccc(OCCN3CCOCC3)cc2)CC1 [Q] |  | < 100 | < 10 | < 100 | < 100 | < 1000 | < 100 | IC50 (HCT-116 cells [4]; 72 h exposure, read-out: HCT-116 IC50 Clonogenic 72 h): < 100 nM |
